Reference: US20130303487A1, “Compositions Comprising Zoledronic Acid or Related Compounds for Relieving Inflammatory Pain and Related Conditions” (priority 2012, published 2013)
Where two headings read alike, the source gives them in different places.

How the values were obtained:
[1] = test system: inflammatory pain (mechanical hyperalgesia); assay type: in vivo, Sprague-Dawley rats
Description: The effect of orally administered zoledronic acid on inflammatory pain was examined using the rat complete Freund's adjuvant (CFA) model. Inflammatory pain was induced by injection of 100% CFA in a 75 μL volume into the left hind paws of Sprague-Dawley rats on day 0, followed by assessments on days 1-3. Animals were orally administered vehicle (control), zoledronic acid 18 mg/m^2 (or 3 mg/kg), zoledronic acid 120 mg/m^2 (or 20 mg/kg), or zoledronic acid 900 mg/m^2 (or 150 mg/kg) daily on days 1-3. Drug was dissolved in distilled water and prepared fresh daily. Animals were fasted prior to dosing. Under current FDA guidelines for extrapolating starting dosages from animals to humans, dosages expressed in mg/m^2 are considered equivalent between mammalian species. Thus, for example, 18 mg/m^2 in a rat is considered equivalent to 18 mg/m^2 in a human being, while 3 mg/kg in a rat may not be equivalent to 3 mg/kg in a human being.
Values for inflammatory pain (mechanical hyperalgesia) in the vehicle and drug-treated animals were obtained on day 0 prior to CFA injection, and at baseline and post-treatment on days 1-3. Pain was assessed using a digital Randall-Selitto device (dRS; IITC Life Sciences, Woodland Hills, Calif.). Animals were placed in a restraint sling that suspended the animal, leaving the hind limbs available for testing. Paw compression threshold was measured by applying increasing pressure to the plantar surface of the hind paw with a dome-shaped tip placed between the 3rd and 4th metatarsus. Pressure was applied gradually over approximately 10 seconds. Measurements were taken from the first observed nocifensive behavior of vocalization, struggle or withdrawal. A cut-off value of 300 g was used to prevent injury to the animal.
Reversal of inflammatory pain was calculated according to the formula:
% reversal=(Post-treatment−Post-CFA baseline)/(Pre-CFA baseline−Post-CFA baseline)×100.
The experiment was carried out using 9-10 animals per group.

[2] = test system: complex regional pain syndrome (CRPS); assay: rat tibia fracture model of complex regional pain syndrome (CRPS): von Frey, weight bearing, edema, warmth; assay type: in vivo; conditions: oral 18 mg/m^2/day (3 mg/kg/day) for 28 days
Description: The effect of orally administered zoledronic acid was examined in the rat tibia fracture model of complex regional pain syndrome (CRPS). CRPS was induced in the rats by fracturing the right distal tibias of the animals and casting the fractured hindpaws for 4 weeks, as described in Guo T Z et al. (Pain. 2004; 108:95-107).
Animals were orally administered either vehicle (control) or zoledronic acid, in a dosage of 18 mg/m^2/day (3 mg/kg/day) for 28 days, starting on the day of fracture and casting. Drug was dissolved in distilled water and administered by gavage. Animals were fasted for 4 hours before and 2 hours after dosing. At the end of the 28-day period, casts were removed, and on the following day, the rats were tested for hindpaw pain, edema, and warmth.
Pain was assessed by measuring hyperalgesia, and weight bearing. […]
An incapacitance device (IITC Inc. Life Science, Woodland, Calif., USA) was used to measure hindpaw weight bearing, a postural effect of pain. […] Eight readings (excluding the highest and lowest ones) were averaged to calculate the bilateral hindpaw weight-bearing values. Weight bearing data were analyzed as the ratio between right (fracture) and left hindpaw weight bearing values ((2R/(R+L))×100%). […]
The temperature of the hindpaw was measured using a fine wire thermocouple (Omega, Stanford, Conn., USA) applied to the paw skin. […]

In the case of `O=P(O)(O)C(O)(Cn1ccnc1)P(=O)(O)O` [zoledronic acid], the “paw compression thresholds versus vehicle” value ([1]; oral 18 mg/m^2, entire measurement period after 30 minutes from start of treatment) is reported as “higher than for vehicle”, the “paw compression thresholds versus vehicle” value ([1]; oral 120 mg/m^2 (20 mg/kg), all time points) is reported as “approximately equal or inferior to vehicle” and the toxicity ([1]; oral 900 mg/m^2 (150 mg/kg) daily days 1-3, two days after cessation of dosing) is reported as “significant toxicity necessitating euthanization of all the animals in this group”. For the same compound, the “paw compression thresholds versus vehicle” value ([1]; oral 900 mg/m^2, day three) was “greater than for vehicle”, the “paw compression thresholds versus vehicle” value ([1]; two higher doses (120 and 900 mg/m^2), first two days of dosing) was “lower than vehicle” and the “hindlimb weight bearing on fracture hindlimb” value [2] was 86 % of normal.
